B1: 8A10: anti-taxane IgG2a mouse monoclonal antibody; variable regions SEQ ID NOS: 2 and 4 (antibody, V domains shown)
VL: DIVMTQSQKFMSITLGERVSITCKPSQNVGSAVTWWQQKPGQSPKLLIYSASNRYTGVPDRFTGSGSGTDFTLTISNVQSEDLADYFCQQYSSYPYTFGGGTKLEIKR
VH: EVQLQQSGPELVKPGASVKISCKASGYTFTDSTMNWVKQSHGKSLEWIGEIDPNNGGTNYNQKFKGKATLTVDKSSSTAYMELRSLTSEDSAVYYCARGVWGQGTTLTVSS
modifications: mouse IgG2a constant regions
B2: 3C6 (antibody, V domains shown)
VH: EVQLQESGPSLVKPSQTLSLTCSVTGDSITSGYWNWIRKFPGNRLEYMGYISYSGSTYYNPSLKSRISITRDTSKNQYYLHLTSVTTEDTATYYCAQGDGAYWGQGTTLTVSS
VL: DVVMTQTPLSLPVSLGDQASISCRSRQSLVHSNGNTYLHWYLQKPGQSPKLLIYKVSNRFSGVPDRFSGSGSGTEFTLEISRVEAEDLGVYFCSQSTHVPPTFGGGTKLEIK

What was measured:
[1] = system: 3C6 anti TAXOL IgG2a,k antibody; experiment: Paclitaxel antibody cross-reactivity, IC50 towards taxanes (3C6); type: binding, mouse; details: antibody 3C6; read-out: IC50 towards taxane, 3C6
Description: (§1) The antibodies of the invention were generated by immunizing mice with either TAXOL® or baccatin conjugated to KLH. The antibodies are summarized as: 3C6 anti TAXOL® IgG2a,k, 3H5 anti-baccatin III IgG1, 8A10 anti-taxane IgG2a. Cross-reactivity profile of 3C6, 3H5, and 8A10 antibodies are shown by their IC50 values towards various taxanes in Table 1.

[2] = system: 3H5 anti-baccatin III IgG1 antibody; experiment: Paclitaxel antibody cross-reactivity, IC50 towards taxanes (3H5); type: binding, mouse; details: antibody 3H5; read-out: IC50 towards taxane, 3H5
Description: as §1

[3] = system: 8A10 anti-taxane IgG2a antibody; experiment: Paclitaxel antibody cross-reactivity, IC50 towards taxanes (8A10); type: binding, mouse; details: antibody 8A10
Description: as §1

BSA-paclitaxel antigen = BSA-paclitaxel antigen (Bos taurus, UniProt P02769); experiment: Direct binding ELISA of intact IgGs to BSA-paclitaxel antigen (FIG. 4); details: read-out: apparent Kd
Sequence of BSA-paclitaxel antigen (P02769 25-607): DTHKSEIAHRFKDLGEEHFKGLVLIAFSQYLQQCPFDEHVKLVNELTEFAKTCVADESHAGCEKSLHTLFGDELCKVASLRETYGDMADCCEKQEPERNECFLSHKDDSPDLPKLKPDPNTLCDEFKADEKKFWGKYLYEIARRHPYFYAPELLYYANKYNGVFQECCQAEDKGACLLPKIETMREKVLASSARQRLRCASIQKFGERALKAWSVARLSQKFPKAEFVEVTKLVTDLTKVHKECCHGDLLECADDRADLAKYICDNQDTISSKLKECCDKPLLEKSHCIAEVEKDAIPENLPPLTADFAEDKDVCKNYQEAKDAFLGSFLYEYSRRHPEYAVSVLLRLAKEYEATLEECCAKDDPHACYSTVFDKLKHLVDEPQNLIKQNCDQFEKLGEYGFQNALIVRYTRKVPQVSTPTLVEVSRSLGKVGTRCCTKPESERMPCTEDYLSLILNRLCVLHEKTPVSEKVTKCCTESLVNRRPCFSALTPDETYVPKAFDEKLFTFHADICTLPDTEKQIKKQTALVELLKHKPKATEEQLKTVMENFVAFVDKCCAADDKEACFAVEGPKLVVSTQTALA
Description: FIG. 4 is a graph illustrating direct binding of intact IgGs (8A10 and 3C6) of the invention to a BSA-paclitaxel antigen on an ELISA.
Antibody affinity. 50 μL of BSA-paclitaxel antigen at a concentration of 3.5 μg/mL in 1× PBS was bound to a plate and incubated at 4° C. overnight. The plate was washed four ties with PBS/0.05% Tween 20. The plate was blocked for 2 hours with 1% BSA in PBS/0.05% Tween 20 at room temperature. The plate was washed four ties with PBS/0.05% Tween 20. 50 μL of antibody sample (8A10 and 3C6) was bound (start at 300 nM and titer down by 3s). The plate was washed four times with PBS/0.05% Tween 20. 50 μL of goat anti mIgG horseradish peroxidase (1:5000 dilution) was bound and then 50 μL of substrate solution TMB was added and the color allowed to develop. The reaction was stopped with 50 μL 1M HCl and the optical density was read at 450 nm.

BSA-paclitaxel (BSA-Ag) = BSA-paclitaxel (BSA-Ag) (Bos taurus, UniProt P02769); experiment: Biacore 3000 SPR kinetic analysis, antigen on the chip; type: binding; details: for Dissociation rate constant (kd) / ka: 25° C.
Sequence of BSA-paclitaxel (BSA-Ag) (P02769 25-607): as above
Description: In this example, a method for determining antibody properties is described. The methods were carried out by Precision Antibody, Inc. (Columbia, Md.) using a Biacore Assay.
Binding experiments were performed on a Biacore 3000 instrument (GE, Pittsburgh, Pa.) at 25° C. Approximately 13,000 RU of anti-BSA ab (Life Technologies, A11133, lot 1637270) was directly immobilized on flow cell 2 of CM5 chip by amine coupling (EDC/NHS). 110-120 RU of BSA-paclitaxel (BSA-Ag) was captured. Flow cell 1 was treated the same way but without the ligand and used as a blank surface for reference subtraction. The unoccupied sites were blocked with 1 M ethanol amine. Analytes Ab 1 (8A10) and Ab2 (3C6) were flowed over the chip at variable concentrations. Binding of antigen to the antibodies was monitored in real time to obtain on (ka) and off (kd) rates. The equilibrium constant (KD) was calculated from the observed ka and kd.
Full kinetic analysis was performed using analyte concentrations as indicated with 2-fold serial dilutions. The starting concentration was 200 nM, followed by 100, 50, 25, 12.5, and 0 nM. The 100 nM concentration was run in duplicates to confirm the reproducibility of the assay.
The assay buffer was 10 mM HEPES buffer (pH 7.4), 150 mM NaCl, 3 mM EDTA, 0.05% P20 (polyoxyethylenesorbitan). The regeneration buffer was 10 mM Glycine buffer (pH 2.0). The conjugation buffer was 10 mM sodium acetate buffer (pH 5.0). The flow rate used for capturing the ligand was 1 μL/min. The flow rate for kinetics analysis was 50 μL/min.
Chi square (χ^2) analysis was carried out between the actual sensorgram and the sensorgram generated from the BlAnalysis software to determine the accuracy of the analysis. A χ^2 value within 1-2 is considered significant (accurate) and below 1 is highly significant (highly accurate).

BSA-paclitaxel [4] = target: T1, BSA-paclitaxel (Bos taurus, UniProt P02769); experiment: Biacore 3000 SPR, antibody on the chip; type: binding; details: Biacore 3000, antibody on the chip (3C6: single point)
T1 sequence (P02769 25-607): as above

BSA-paclitaxel [5] = target: T1, BSA-paclitaxel; experiment: Biacore T-200 SPR, antibody on the chip; type: binding; details: Biacore T-200, antibody on the chip
[6] = BSA-Ag (110RU) ligand, full kinetic analysis
[7] = BSA-Ag (110RU) ligand, calculated from ka and kd
[8] = Biacore 3000, antigen on the chip

Molecule | IC50 [1] [nM] | IC50 [2] [nM] | IC50 [3] [nM] | other results
CC(=O)O[C@H]1C(=O)[C@@]2(C)[C@H]([C@H](OC(=O)c3ccc(C(F)(F)F)cc3)[C@]3(O)C[C@H](OC(=O)[C@H](O)[C@@H](NC(=O)c4ccccc4)c4ccccc4)C(C)=C1C3(C)C)[C@]1(OC(C)=O)CO[C@@H]1C[C@@H]2O [2-debenzoyl-2-(p-trifluoromethylbenzoyl)taxol] | > 293 | > 293 | > 293 | –
CC(=O)O[C@@]12CO[C@@H]1C[C@@H](O)[C@@]1(C)C(=O)[C@H](O)C3=C(C)[C@@H](O)C[C@@](O)([C@@H](OC(=O)c4ccccc4)[C@H]21)C3(C)C [7-epi-10-deacetylbaccatin III] | > 469 | 150 | 27 | –
CC(=O)O[C@@]12CO[C@@H]1C[C@H](O)[C@@]1(C)C(=O)[C@H](O)C3=C(C)[C@@H](OC(=O)[C@H](O)[C@@H](NC(=O)c4ccccc4)c4ccccc4)C[C@@](O)([C@@H](OC(=O)c4ccccc4)[C@H]21)C3(C)C [7-epi-10-deacetyltaxol] | 25 | > 333 | 15 | –
CC(=O)O[C@H]1C(=O)[C@@]2(C)[C@H]([C@H](OC(=O)c3ccccc3)[C@]3(O)C[C@H](OC(=O)[C@H](O)[C@@H](NC(=O)c4ccccc4)c4ccccc4)C(C)=C1C3(C)C)[C@]1(OC(C)=O)CO[C@@H]1C[C@@H]2O [7-epi-taxol] | 80 | > 316 | 50 | –
CC(=O)O[C@@]12CO[C@@H]1C[C@H](O[C@@H]1OC[C@@H](O)[C@H](O)[C@H]1O)[C@@]1(C)C(=O)[C@H](O)C3=C(C)[C@@H](OC(=O)[C@H](O)[C@@H](NC(=O)c4ccccc4)c4ccccc4)C[C@@](O)([C@@H](OC(=O)c4ccccc4)[C@H]21)C3(C)C [7-xylosyl-10-deacetyltaxol] | 30 | > 286 | 17 | –
CC(=O)O[C@@]12CO[C@@H]1C[C@H](O)[C@@]1(C)C(=O)[C@H](O)C3=C(C)[C@@H](O)C[C@@](O)([C@@H](OC(=O)c4ccccc4)[C@H]21)C3(C)C [10-deacetylbaccatin III] | > 551 | 230 | 21 | –
CC(=O)O[C@@]12CO[C@@H]1C[C@H](O)[C@@]1(C)C(=O)[C@H](O)C3=C(C)[C@@H](OC(=O)[C@H](O)[C@@H](NC(=O)c4ccccc4)c4ccccc4)C[C@@](O)([C@@H](OC(=O)c4ccccc4)[C@H]21)C3(C)C [10-deacetyltaxol] | 15 | > 333 | 10 | –
CC(=O)OC[C@@]1(O)[C@H]2[C@H](OC(=O)c3ccccc3)[C@]3(O)C[C@H](OC(=O)[C@H](O)[C@@H](NC(=O)c4ccccc4)c4ccccc4)C(C)=C([C@@H](OC(C)=O)C(=O)[C@]2(C)[C@@H](O)C[C@@H]1O)C3(C)C [20-acetoxy-4-deacetyl-5-epi-20,O-secotaxol] | > 310 | > 310 | > 293 | –
CC(=O)O[C@H]1C(=O)[C@@]2(C)[C@H]([C@H](OC(=O)c3ccccc3)[C@]3(O)C[C@H](O)C(C)=C1C3(C)C)[C@]1(OC(C)=O)CO[C@@H]1C[C@@H]2O [baccatin III] | > 511 | 10 | 12 | –
CC(=O)O[C@H]1C(=O)[C@]2(C)[C@H](O)C[C@H]3OC[C@@]3(OC(C)=O)[C@H]2[C@H](OC(=O)c2ccccc2)[C@]2(O)C[C@H](O)C(C)=C1C2(C)C [baccatin V] | > 460 | 10 | 10 | –
C/C=C(\C)C(=O)N[C@@H](c1ccccc1)[C@@H](O)C(=O)O[C@H]1C[C@@]2(O)[C@@H](OC(=O)c3ccccc3)[C@@H]3[C@]4(OC(C)=O)CO[C@@H]4C[C@H](O)[C@@]3(C)C(=O)[C@H](OC(C)=O)C(=C1C)C2(C)C [cephalomannine] | 220 | > 325 | 8 | –
CC(=O)O[C@H]1C(=O)[C@@]2(C)[C@H]([C@H](OC(=O)c3ccccc3)[C@]3(O)C[C@H](OC(=O)[C@H](O)[C@@H](NC(=O)c4ccccc4)c4ccccc4)C(C)=C1C3(C)C)[C@]1(OC(C)=O)CO[C@@H]1C[C@@H]2O [paclitaxel (TAXOL ®), paclitaxel] | 10 | > 316 | 7 | –
B1 | – | – | – | Kd (BSA-paclitaxel antigen): ~10 nM; Dissociation rate constant (kd) (BSA-paclitaxel (BSA-Ag); [6]): 0.000304 s⁻¹; ka (BSA-paclitaxel (BSA-Ag); [6]): 470000 M⁻¹ s⁻¹; Kd (BSA-paclitaxel (BSA-Ag); [7]): 0.645 nM; KA (BSA-paclitaxel (BSA-Ag); [6]): 1.55e+09 M⁻¹; Rmax (BSA-paclitaxel (BSA-Ag); [6]): 4.01; Kd (BSA-paclitaxel (BSA-Ag); [8]): 0.65 nM; Off-rate (BSA-paclitaxel (BSA-Ag); [8]): 3.0 × 10^−4; On-rate (BSA-paclitaxel (BSA-Ag); [8]): 4.7 × 10^5; Rmax (BSA-paclitaxel (BSA-Ag); [8]): 4.0; Kd (BSA-paclitaxel [4]): 1.3 nM; Off-rate (BSA-paclitaxel [4]): 2.0 × 10^−3; On-rate (BSA-paclitaxel [4]): 1.6 × 10^6; Rmax (BSA-paclitaxel [4]): 3.6; Kd (BSA-paclitaxel [5]): 3.6 nM; Off-rate (BSA-paclitaxel [5]): 8.7 × 10^−4; On-rate (BSA-paclitaxel [5]): 2.4 × 10^5; Rmax (BSA-paclitaxel [5]): 8.6
B2 | – | – | – | Kd (BSA-paclitaxel antigen): ~10 nM; Dissociation rate constant (kd) (BSA-paclitaxel (BSA-Ag); [6]): 0.000967 s⁻¹; ka (BSA-paclitaxel (BSA-Ag); [6]): 20500 M⁻¹ s⁻¹; Kd (BSA-paclitaxel (BSA-Ag); [7]): 47.2 nM; KA (BSA-paclitaxel (BSA-Ag); [6]): 2.12e+07 M⁻¹; Rmax (BSA-paclitaxel (BSA-Ag); [6]): 15.6; Kd (BSA-paclitaxel (BSA-Ag); [8]): 47 nM; Off-rate (BSA-paclitaxel (BSA-Ag); [8]): 9.7 × 10^−4; On-rate (BSA-paclitaxel (BSA-Ag); [8]): 2.1 × 10^4; Rmax (BSA-paclitaxel (BSA-Ag); [8]): 15.6; Kd (BSA-paclitaxel [4]): 10 nM; Off-rate (BSA-paclitaxel [4]): 2.9 × 10^−4; On-rate (BSA-paclitaxel [4]): 2.8 × 10^4; Rmax (BSA-paclitaxel [4]): 54.4; Kd (BSA-paclitaxel [5]): 12 nM; Off-rate (BSA-paclitaxel [5]): 2.2 × 10^−4; On-rate (BSA-paclitaxel [5]): 1.8 × 10^4; Rmax (BSA-paclitaxel [5]): 112

Reference: patent publication US20180136242A1 (Autotelic LLC, priority 2014, published 2018)
